Laboratory results: patent publication US20220296627A1, “Cytidine Derivatives and Methods of Forming Cytidine Derivatives” (Aenorasis Commercial Company of Pharmaceutical and Medical …, priority 2019, published 2022)

Assays:
Format in all cases: cell-based
[1] = system: PANC-01 human pancreatic cancer cell line; assay: Cell growth assay (SRB) in PANC-01; conditions: for Ratio of IC50 in the presence of dipyridamole / IC50 in the absence of dipyridamole: 4-N-acyl and 4-N-phosphoryl derivatives (Table 5); for IC50: Homo sapiens, Pancreatic cancer cell; for Ratio of IC50 in the presence of, compared to in the absence of, dipyridamole: acetylated 4-N-acyl derivatives (Table 7)
Protocol: (§1) Biological activities of the Gemcitabine derivative (which may be referred to as analogues) described above were evaluated with two assays: • 1. Cell growth assay using the SRB assay in cell lines A549/WT, SW1573/WT, PANC-01 and BXPC-3. • 2. MTT assay in human bladder cancer cell line T-24
(§2) The following cell lines were tested: • A549/WT —wild type human lung adenocarcinoma cell line (1) • SW1573/WT —wild type non-small lung human cell line (2), • PANC-01—human pancreatic cancer cell line (3) • BXPC-3 -epithelial human pancreatic adenocarcinoma cells (4).
(§3) Dipyridamole inhibits adenosine uptake by erythrocytes platelets and endothelial cells in vitro and in vivo. Thus, the present inventors recruited dipyridamole as an inhibitor of the nucleoside transporters of the tumour cells to observe the behaviour of the presently described Gemcitabine derivatives.
(§4) From the IC50 of each compound in the presence of dipyridamole, by dividing it with the IC50 of each compound in the absence of dipyridamole, the present inventors calculated a ratio that compared the efficacy of the analogous presence of dipyridamole.
(§5) Ratio=IC50 in the presence of dipyridamole/IC50 in the absence of dipyridamole • FIG. 10. Ratio of IC50 of 4-N-acyl and 4-N-phosphoryl derivatives in the presence of, compared to in the absence of, dipyridamole, in four cell lines

[2] = system: SW1573/WT wild type non-small lung human cell line; assay: Cell growth assay (SRB) in SW1573/WT; conditions: for IC50: Homo sapiens, SW1573, SW 1573/WT; for Ratio of IC50 in the presence of dipyridamole / IC50 in the absence of dipyridamole / Ratio of IC50 in the presence of, compared to in the absence of, dipyridamole: SW 1573/WT; for Ratio of IC50 in the presence of dipyridamole / IC50 in the absence of dipyridamole: 4-N-acyl and 4-N-phosphoryl derivatives (Table 5); for Ratio of IC50 in the presence of, compared to in the absence of, dipyridamole: acetylated 4-N-acyl derivatives (Table 7)
Protocol: as §1, §2, §3, §4, §5

[3] = system: A549/WT wild type human lung adenocarcinoma cell line; assay: Cell growth assay (SRB) in A549/WT; conditions: for Ratio of IC50 in the presence of dipyridamole / IC50 in the absence of dipyridamole / Ratio of IC50 in the presence of, compared to in the absence of, dipyridamole: A549/WT; for Ratio of IC50 in the presence of dipyridamole / IC50 in the absence of dipyridamole: 4-N-acyl and 4-N-phosphoryl derivatives (Table 5); for IC50: Homo sapiens, A549, A549/WT; for Ratio of IC50 in the presence of, compared to in the absence of, dipyridamole: acetylated 4-N-acyl derivatives (Table 7)
Protocol: as §1, §2, §3, §4, §5

[4] = system: BXPC-3 epithelial human pancreatic adenocarcinoma cells; assay: Cell growth assay (SRB) in BXPC-3; conditions: for Ratio of IC50 in the presence of dipyridamole / IC50 in the absence of dipyridamole / Ratio of IC50 in the presence of, compared to in the absence of, dipyridamole: BXPC-3; for Ratio of IC50 in the presence of dipyridamole / IC50 in the absence of dipyridamole: 4-N-acyl and 4-N-phosphoryl derivatives (Table 5); for IC50: Homo sapiens, BXPC-3, BXPC-3; for Ratio of IC50 in the presence of, compared to in the absence of, dipyridamole: acetylated 4-N-acyl derivatives (Table 7)
Protocol: as §1, §2, §3, §4, §5

[5] = system: human bladder cancer cell line T-24; assay: MTT assay, cell viability of T-24 cells; conditions: 100 μM; for inhibition of cell growth (cell viability, MTT), order of potency: 5000 cells/well
Protocol: as §1
The cell viability of T-24 bladder cancer cells upon treatment with the Gemcitabine derivatives was evaluated using the MTT assay. T24 cancer cells were cultured in DMEM (Gibco) high glucose supplemented with 10% FBS and 1% Penicillin/Streptomycin (100 U/mL Penicillin and 100 μg/mL Streptomycin), at 37 ° C. in humidified atmosphere of 5% CO2.
For the MTT assay 5000 or 10000 cells were seeded in triplicates in 96-well plates. Stock solutions of each derivative were prepared in DMSO/EtOH (1:1 v/v). Then, the cells were treated and incubated with 100 μM of each compound for 24 or 48 hours. After the completion of the incubation time, 10 μL of MTT solution (5 mg/ml in PBS buffer) were added in each well and incubated for 4 hrs. Finally, to stop the reaction, the supernatant from each well was removed and 100 μL of stop mix solution (20% SDS in 50% dimethyl formamide in water) were added. The plate remained in darkness for 2 h and the absorbance was measured at 540 nm via a microplate ELISA reader (Awareness Technology Inc.) with a reference at 630 nm. The % cell viability for each compound was calculated relatively to the absorbance of the untreated cells (control).
Two sets of experiments were performed at concentrations of 100 μM, and the absorption of formazan was measured after 24 and 48 hours.
Another experiment was conducted with the MTT assay where the compounds were incubated for 48 hours at […] derivative concentration where the number of cells seeded per well was 10000.

[6] = 4-N-acyl and 4-N-phosphoryl derivatives (Table 4)
[7] = acetylated 4-N-acyl derivatives (Table 6)

Ratio of IC50 in the presence of dipyridamole / IC50 in the absence of dipyridamole [1]	IC50 [1, 6] [nM]	IC50 [2, 6] [nM]	Ratio of IC50 in the presence of dipyridamole / IC50 in the absence of dipyridamole [2]	Ratio of IC50 in the presence of dipyridamole / IC50 in the absence of dipyridamole [3]	IC50 [3, 6] [nM]	Ratio of IC50 in the presence of dipyridamole / IC50 in the absence of dipyridamole [4]	IC50 [4, 6] [nM]	IC50 [1, 7] [nM]	Ratio of IC50 in the presence of, compared to in the absence of, dipyridamole [1]	IC50 [2, 7] [nM]	Ratio of IC50 in the presence of, compared to in the absence of, dipyridamole [2]	Ratio of IC50 in the presence of, compared to in the absence of, dipyridamole [3]	IC50 [3, 7] [nM]	Ratio of IC50 in the presence of, compared to in the absence of, dipyridamole [4]	IC50 [4, 7] [nM]	Compound	inhibition of cell growth (cell viability, MTT), order of potency ([5]; 24 hours)	inhibition of cell growth (cell viability, MTT), order of potency ([5]; 48 hours)	cell viability (MTT), most potent derivatives ([5]; 10000 cells/well, 48 hours)
2.7	1850	380	13	11.1	450	23	240									C#CCOC(=O)Nc1ccn(C2OC(CO)C(O)C2(F)F)c(=O)n1 (stereo not drawn) [Derivative 5]			
								25000	1	6800	3.6	2.85	6300	2.8	5000	CCOC(=O)Nc1ccn(C2OC(COC(C)=O)C(OC(C)=O)C2(F)F)c(=O)n1 (stereo not drawn) [Derivative 13]			
								10000	2.5	4000	4.5	3.7	3700	3.3	3000	CC(=O)OCC1OC(n2ccc(NC(=O)OCCCl)nc2=O)C(F)(F)C1OC(C)=O (stereo not drawn) [Derivative 15]			
								6600	3.1	610	12.7	6.5	900	10.8	720	C#CCOC(=O)Nc1ccn(C2OC(COC(C)=O)C(OC(C)=O)C2(F)F)c(=O)n1 (stereo not drawn) [Derivative 18]			
								8000	1.1	1150	3.5	15	1600	8	770	CC(=O)OCC1OC(n2ccc(NC(=O)OCC(C)c3ccccc3[N+](=O)[O-])nc2=O)C(F)(F)C1OC(C)=O (stereo not drawn) [Derivative 19]			
								25000	1	4300	3.7	2.6	8000	2.8	3200	CC(=O)OCC1OC(n2ccc(NC(=O)OCC(C)C)nc2=O)C(F)(F)C1OC(C)=O (stereo not drawn) [Derivative 21]			
								3700	1.6	260	13.4	4	400	4.1	450	CC(=O)Nc1ccn(C2OC(COC(C)=O)C(OC(C)=O)C2(F)F)c(=O)n1 (stereo not drawn) [Derivative 22]			

Further lines, the compound ahead of its results:

Compound	Ratio of IC50 in the presence of dipyridamole / IC50 in the absence of dipyridamole [1]	IC50 [1, 6] [nM]	IC50 [2, 6] [nM]	Ratio of IC50 in the presence of dipyridamole / IC50 in the absence of dipyridamole [2]	Ratio of IC50 in the presence of dipyridamole / IC50 in the absence of dipyridamole [3]	IC50 [3, 6] [nM]	Ratio of IC50 in the presence of dipyridamole / IC50 in the absence of dipyridamole [4]	IC50 [4, 6] [nM]	IC50 [1, 7] [nM]	Ratio of IC50 in the presence of, compared to in the absence of, dipyridamole [1]	IC50 [2, 7] [nM]	Ratio of IC50 in the presence of, compared to in the absence of, dipyridamole [2]	Ratio of IC50 in the presence of, compared to in the absence of, dipyridamole [3]	IC50 [3, 7] [nM]	Ratio of IC50 in the presence of, compared to in the absence of, dipyridamole [4]	IC50 [4, 7] [nM]	inhibition of cell growth (cell viability, MTT), order of potency ([5]; 24 hours)	inhibition of cell growth (cell viability, MTT), order of potency ([5]; 48 hours)	cell viability (MTT), most potent derivatives ([5]; 10000 cells/well, 48 hours)
CCCCOC(=O)Nc1ccn(C2OC(CO)C(O)C2(F)F)c(=O)n1 (stereo not drawn) [Derivative 2]	2.4	2450	460	8	3.4	700	3.7	340											
O=C(Nc1ccn(C2OC(CO)C(O)C2(F)F)c(=O)n1)OCCCl (stereo not drawn) [Derivative 3A]	0.6	3000	610	40.9	10.5	950	27	500											
O=C1OCCN1c1ccn(C2OC(CO)C(O)C2(F)F)c(=O)n1 (stereo not drawn) [Derivative 3B]	23	380	100	25	18.1	160	24	100											
O=C(Nc1ccn(C2OC(CO)C(O)C2(F)F)c(=O)n1)OCCl (stereo not drawn) [Derivative 4]	22	45	100	10	6.3	100	4.5	100									greater potency than the parent drug Gemcitabine	17>4>11 and then Gemcitabine	most potent
CC(COC(=O)Nc1ccn(C2OC(CO)C(O)C2(F)F)c(=O)n1)c1ccccc1[N+](=O)[O-] (stereo not drawn) [Derivative 6]	4	1600	430	11	11	500	13.1	340											
CC(C)COC(=O)Nc1ccn(C2OC(CO)C(O)C2(F)F)c(=O)n1 (stereo not drawn) [Derivative 8]	4.2	480	170	14	10.4	240	25	150											
CC(=O)OCC1OC(n2ccc(N3CCOC3=O)nc2=O)C(F)(F)C1OC(C)=O (stereo not drawn) [Derivative 16]									25000	1	4200	3.8	2.7	6200	3.4	5000			
COc1cc(COC(=O)Nc2ccn(C3OC(COC(C)=O)C(OC(C)=O)C3(F)F)c(=O)n2)c([N+](=O)[O-])cc1OC (stereo not drawn) [Derivative 20]									3900	4	570	17.54	7.5	620	4.6	600			
